Measurements taken from the supplement of paper PMC10307832.

Experiments:
Assay in all cases: relative viability (nuclei count vs DMSO), 5 days (fraction); higher = more cells survive
Etoposide + Trametinib = compound: COc1cc([C@@H]2c3cc4c(cc3[C@@H](O[C@@H]3O[C@@H]5CO[C@@H](C)O[C@H]5[C@H](O)[C@H]3O)[C@H]3COC(=O)[C@H]23)OCO4)cc(OC)c1O [Etoposide] + CC(=O)Nc1cccc(-n2c(=O)n(C3CC3)c(=O)c3c(Nc4ccc(I)cc4F)n(C)c(=O)c(C)c32)c1 [Trametinib] (partner 0.02 µM)
Procedure, shortened: (§1)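 Lung cancer cell lines, seeded in 1536-well plates, were treated the following day by pin tool with a single drug or with five library-drug doses (not always all listed) in √10 steps on top of a fixed anchor-drug dose. Cells were fixed and nuclei stained in one step after 5 days, and nuclei were counted. Relative viability is the nuclei count for treated wells divided by that for vehicle wells, reported as medians of duplicate plates.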

Etoposide + OSI-027 = compound: COc1cc([C@@H]2c3cc4c(cc3[C@@H](O[C@@H]3O[C@@H]5CO[C@@H](C)O[C@H]5[C@H](O)[C@H]3O)[C@H]3COC(=O)[C@H]23)OCO4)cc(OC)c1O [Etoposide] + COc1cccc2cc(-c3nc([C@H]4CC[C@H](C(=O)O)CC4)n4ncnc(N)c34)[nH]c12 [OSI-027] (partner 0.5 µM)
Procedure, shortened: as §1

Etoposide + Crizotinib = compound: COc1cc([C@@H]2c3cc4c(cc3[C@@H](O[C@@H]3O[C@@H]5CO[C@@H](C)O[C@H]5[C@H](O)[C@H]3O)[C@H]3COC(=O)[C@H]23)OCO4)cc(OC)c1O [Etoposide] + C[C@@H](Oc1cc(-c2cnn(C3CCNCC3)c2)cnc1N)c1c(Cl)ccc(F)c1Cl [Crizotinib] (partner 1 µM)
Procedure, shortened: as §1

Bleomycin + Olaparib = compound: CC1=C(N=C(N=C1N)[C@H](CC(=O)N)NC[C@@H](C(=O)N)N)C(=O)N[C@@H]([C@H](C2=CN=CN2)OC3C(C(C(C(O3)CO)O)O)OC4C(C(C(C(O4)CO)O)OC(=O)N)O)C(=O)N[C@H](C)[C@H]([C@H](C)C(=O)N[C@@H]([C@@H](C)O)C(=O)NCCC5=NC(=CS5)C6=NC(=CS6)C(=O)NCCC[S+](C)C)O [Bleomycin] + O=C(c1cc(Cc2n[nH]c(=O)c3ccccc23)ccc1F)N1CCN(C(=O)C2CC2)CC1 [Olaparib] (partner 8 µM); details: main component drawn
Procedure, shortened: as §1

Row | Cell Line | relative viability (Etoposide + Trametinib; first compound 0.01 µM) | relative viability (Etoposide + Trametinib; first compound 0.03162 µM) | relative viability (Etoposide + Trametinib; first compound 0.1 µM) | relative viability (Etoposide + Trametinib; first compound 0.3162 µM) | relative viability (Etoposide + Trametinib; first compound 1 µM) | relative viability (Etoposide + OSI-027; first compound 0.01 µM) | relative viability (Etoposide + OSI-027; first compound 0.03162 µM) | relative viability (Etoposide + OSI-027; first compound 0.1 µM) | relative viability (Etoposide + OSI-027; first compound 0.3162 µM) | relative viability (Etoposide + OSI-027; first compound 1 µM) | relative viability (Etoposide + Crizotinib; first compound 0.01 µM) | relative viability (Etoposide + Crizotinib; first compound 0.03162 µM) | relative viability (Etoposide + Crizotinib; first compound 0.1 µM) | relative viability (Etoposide + Crizotinib; first compound 0.3162 µM) | relative viability (Etoposide + Crizotinib; first compound 1 µM) | relative viability (Bleomycin + Olaparib; first compound 0.01 µM) | relative viability (Bleomycin + Olaparib; first compound 0.03162 µM) | relative viability (Bleomycin + Olaparib; first compound 0.1 µM) | relative viability (Bleomycin + Olaparib; first compound 0.3162 µM) | relative viability (Bleomycin + Olaparib; first compound 1 µM)
1 | LC-2-ad | 0.884 | 0.902 | 0.988 | 0.743 | 0.689 | 0.81 | 0.839 | 0.473 | 0.42 | 0.25 | 0.568 | 0.45 | 0.434 | 0.332 | 0.203 | 0.574 | 0.431 | 0.287 | 0.235 | 0.219
2 | COR-L 105 | 0.443 | 0.479 | 0.439 | 0.437 | 0.398 | 0.756 | 0.851 | 0.432 | 0.669 | 0.556 | 0.675 | 0.51 | 0.709 | 0.644 | 0.543 | 0.614 | 0.518 | 0.526 | 0.417 | 0.352
3 | NCI-H1355 | 0.396 | 0.478 | 0.27 | 0.384 | 0.256 | 0.383 | 0.396 | 0.3 | 0.345 | 0.219 | 0.918 | 1.15 | 0.5 | 0.674 | 0.306 | 0.669 | 0.71 | 0.676 | 0.341 | 0.228
4 | H3255 | 0.578 | 0.707 | 0.411 | 0.57 | 0.347 | 0.617 | 0.709 | 0.417 | 0.542 | 0.477 | 0.802 | 0.841 | 0.667 | 0.537 | 0.231 | 0.491 | 0.519 | 0.495 | 0.373 | 0.344
5 | NCI-H1993 | – | 0.619 | 0.441 | 0.481 | 0.444 | 0.565 | 0.452 | 0.53 | 0.508 | 0.522 | 0.758 | 0.856 | 0.734 | 0.712 | 0.473 | 0.763 | 0.728 | 0.645 | 0.353 | 0.43
6 | NCI-H1734 | 0.655 | 0.74 | 0.499 | 0.461 | 0.452 | 0.636 | 0.617 | 0.406 | 0.497 | 0.302 | 0.647 | 0.643 | 0.541 | 0.497 | 0.271 | 0.505 | 0.451 | 0.377 | 0.222 | 0.148
7 | HOP-62 | 0.348 | 0.395 | 0.325 | 0.343 | 0.316 | 0.802 | 0.882 | 0.521 | 0.696 | 0.523 | 0.96 | 0.998 | 0.799 | 0.681 | 0.157 | 0.175 | 0.137 | 0.0997 | 0.0722 | 0.0872
8 | LOU-NH91 | 0.731 | 0.817 | 0.659 | 0.758 | 0.552 | 0.723 | 0.794 | 0.493 | 0.71 | 0.612 | 0.74 | 0.767 | 0.701 | 0.632 | 0.438 | 0.604 | 0.521 | 0.432 | 0.342 | 0.28
9 | ChaGo-K-1 | 0.881 | 0.905 | 0.752 | 0.394 | 0.248 | 0.487 | 0.689 | 0.466 | 0.285 | 0.174 | 1.08 | 0.888 | 0.576 | 0.306 | 0.304 | 0.361 | 0.411 | 0.348 | 0.28 | 0.229
10 | NCI-H23 | 0.299 | 0.342 | 0.309 | 0.265 | 0.24 | 0.754 | 0.609 | 0.406 | 0.542 | 0.207 | 0.365 | 0.471 | 0.402 | 0.297 | 0.169 | 0.205 | 0.153 | 0.171 | 0.107 | 0.107
11 | PC-3 [JPC-3] | 0.693 | 0.756 | 0.633 | 0.749 | 0.671 | 0.657 | 0.731 | 0.636 | 0.736 | 0.689 | 0.955 | 1.01 | 1.05 | 0.969 | 0.722 | 0.932 | 1.13 | 0.825 | 0.481 | 0.486
12 | NCI-H1437 | 0.417 | 0.551 | 0.361 | 0.412 | 0.298 | 1.04 | 0.891 | 0.423 | 0.635 | 0.31 | 1.04 | 0.918 | 0.926 | 0.403 | 0.361 | 0.571 | 0.593 | 0.499 | 0.397 | 0.378
13 | NCI-H520 | 0.597 | 0.645 | 0.414 | 0.617 | 0.49 | 0.253 | 0.209 | 0.204 | 0.292 | 0.286 | 0.759 | 0.729 | 0.944 | 0.725 | 0.629 | 0.339 | 0.322 | 0.325 | 0.251 | 0.268
14 | NCI-H1666 | 0.818 | 0.89 | 0.809 | 0.526 | 0.508 | 0.853 | 0.812 | 0.678 | 0.528 | 0.408 | 0.906 | 0.904 | 0.68 | 0.36 | 0.301 | 0.65 | 0.692 | 0.644 | 0.54 | 0.599
15 | NCI-H1651 | 0.774 | 0.783 | 0.558 | 0.362 | 0.165 | 0.591 | 0.641 | 0.438 | 0.44 | 0.155 | 0.815 | 0.827 | 0.629 | 0.301 | 0.202 | 0.177 | 0.153 | 0.172 | 0.116 | 0.122
